Source: patent US8604029B2, “2-[(2-substituted)-indolizin-3-yl]-2-oxo-acetamide derivatives as antifungal agents” (F2G Ltd British Body Corporate, priority 2006, dated 2013)
Values after ≈ are worked out from the molar mass of the structure shown.

Tests used:
Assay in all cases: MIC measurement, YAG medium
Format in all cases: cell-based
Aspergillus flavus = settings: Aspergillus flavus, MIC banded into grades, lowest concentration inhibiting growth by >70%
Procedure: (§1) Between 1 and 5 mgs of compound were accurately weighed out into a sterile Eppendorf tube. The compound was dissolved in DMSO to give a solution containing […]. Tubes were stored at −20° C. until required.
(§2) On the day of testing thawed solutions were vortex mixed to ensure homogeneity. 30 μL of solution was removed and added to 570 μL of sterile water in a separate sterile Eppendorf. The thoroughly mixed solution was used to prepare a series of doubling dilutions in water, in a deep well plate. Thirteen replicate plates were prepared using a Minitrak by aspirating 20 μL from each well into eleven clear polystyrene 96 well plates.
(§3) Spores of Aspergillus spp. (Aspergillus fumigatus [two strains], Aspergillus terreus [two strains], Aspergillus niger and Aspergillus flavus) were harvested from cultures grown on Sabarauds agar for 5 days, and resuspended in PBS/Tween 80 to approx 1×10^7 cfu/mL. Other filamentous fungi (Absidia corymbifera, Fusarium solani, Rhizomucor, Scedosporium spp., Trichophyton spp.), were grown on Sabarauds agar for 2-10 days and spores/hyphae resuspended in PBS/Tween to give approx 1×10^7 cfu/mL. Candida species (Candida albicans, Candida glabrata, Candida krusei, Candida parapsilosis and Candida tropicalis) were grown on Sabarauds agar, cells were harvested from the agar using a sterile loop and resuspended in PBS/Tween 80 to approx 1×10^6 cfu/mL. Each organism suspension was diluted in RPMI medium, containing 2% glucose and 0.135 M MOPS buffer (pH 7.0) to 0.5-2×10^4 cfu/mL for Aspergillus spp. and other filamentous fungi and 0.5-2×10^3 cfu/mL for yeast. 80 μL of an organism suspension was added to each well of the plate containing drug dilutions.
(§4) This produced MIC plates with a drug range 50-0.05 mg/L and organism inocula of 1-2×10^4 cfu/mL for Aspergillus spp. and other filamentous fungi and 1-2×10^3 cfu/mL for yeasts. All plates were incubated for 24-48 hrs at 35° C. Growth was assessed by monitoring the optical density at 485 nm for each well. The MIC of a compound is the lowest drug concentration that inhibits growth of an organism by >80% compared with a drug free control. MICs are recorded as mg/L. Other growth media can be used for susceptibility testing, and the activity of the described compounds can also be assessed in a medium comprising 1% glucose, 1% ammonium chloride and 0.5% yeast extract (YAG medium). To perform MIC tests in this medium, dilutions of compounds are prepared in microtitre plates as described above. Fungal strains to be tested are grown and harvested in an identical manner to that described above, each organism suspension is then diluted in YAG medium to 0.5-2×10^4 cfu/mL for Aspergillus spp. and other filamentous fungi and 0.5-2×10^3 cfu/mL for yeast. 80 μL of an organism suspension was added to each well of the plate containing drug dilutions. This produced MIC plates with a drug range 50-0.05 mg/L and organism inocula of 1-2×10^4 cfu/mL for Aspergillus spp. and other filamentous fungi and 1-2×10^3 cfu/mL for yeasts. All plates were incubated for 24 hrs at 35° C. Growth was assessed by monitoring the optical density at 485 nm for each well. The MIC of a compound is the lowest drug concentration that inhibits growth of an organism by >70% compared with a drug free control. MICs are recorded as mg/L. In cases where the MIC of an organism is […] mg/L the MIC is repeated using a concentration range of 0.5-0.0005 mg/L. MIC tests in YAG medium have more clear-cut endpoints and have slightly lower MICs than those performed in RPMI medium.
(§5) The following organisms were tested: Absidia corymbifera, Aspergillus flavus, Aspergillus fumigatus AF293 and AF210, Aspergillus niger, Aspergillus terreus AT4 and AT49, Candida albicans, Candida glabrata, Candida krusei, Candida parapsilosis, Candida tropicalis, Fusarium solani, Rhizomucor sp., Scedosporium apiospermum, Scedosporium prolificans, Trichophyton mentagrophytes, and Trichophyton rubrum.

[1] = test system: Aspergillus fumigatus AF210; settings: Aspergillus fumigatus, MIC banded into grades, strain AF210, read-out: MIC A. fumigatus 210
Procedure: as §1, §2, §3, §4, §5

Aspergillus fumigatus = settings: Aspergillus fumigatus; YAG medium; MIC banded into grades; strain AF293; read-out: MIC A. fumigatus
Procedure: as §1, §2, §3, §4, §5

Aspergillus niger = settings: Aspergillus niger, MIC banded into grades
Procedure: as §1, §2, §3, §4, §5

Aspergillus terreus AT49 = settings: Aspergillus terreus, MIC banded into grades, strain AT49, read-out: MIC A. terreus 49
Procedure: as §1, §2, §3, §4, §5

Aspergillus terreus = settings: Aspergillus terreus, MIC banded into grades, strain not named in head (AT4)
Procedure: as §1, §2, §3, §4, §5

| Compound | MIC (Aspergillus fumigatus) | further results |
| --- | --- | --- |
| CCOCCN(C1=NC(C)(C)CO1)c1ccc(NC(=O)C(=O)c2c(-c3ccccc3)cc3ccccn23)cc1 [Example 28] | 1 to 10 µg/mL (≈ 1.91 to 19.1 µM) | MIC (Aspergillus flavus): 1 to 10 µg/mL (≈ 1.91 to 19.1 µM); MIC [1]: 1 to 10 µg/mL (≈ 1.91 to 19.1 µM); MIC (Aspergillus niger): < 1 µg/mL; MIC (Aspergillus terreus AT49): 1 to 10 µg/mL (≈ 1.91 to 19.1 µM); MIC (Aspergillus terreus): 1 to 10 µg/mL (≈ 1.91 to 19.1 µM) |
| CCn1ccnc1Cc1ccc(NC(=O)C(=O)c2c(-c3ccccc3C)cc3ccccn23)cc1 [Example 30, N-[4-(3-Ethyl-1H-imidazol-2ylmethyl)-phenyl]-2-oxo-2-(2-o-tolyl-indolizin-3yl)-acetamide] | > 10 µg/mL | MIC (Aspergillus flavus): > 10 µg/mL; MIC [1]: > 10 µg/mL; MIC (Aspergillus niger): > 10 µg/mL; MIC (Aspergillus terreus AT49): > 10 µg/mL; MIC (Aspergillus terreus): > 10 µg/mL |
| O=C(Nc1ccc(N2CCN(Cc3ccco3)CC2)cc1)C(=O)c1c(-c2ccccc2)cc2ccccn12 [Example 31, 4-[4-(2-Furan-2-yl-methyl-piperazin-yl)-phenyl]-2-oxo-2-(2-phenyl-indolizin-3-yl)-acetamide] | < 1 µg/mL | MIC (Aspergillus flavus): < 1 µg/mL; MIC [1]: < 1 µg/mL; MIC (Aspergillus niger): < 1 µg/mL; MIC (Aspergillus terreus AT49): < 1 µg/mL; MIC (Aspergillus terreus): < 1 µg/mL |
| Cc1cc(C)nc(NCCN(C)c2ccc(NC(=O)C(=O)c3c(-c4ccccc4)cc4ccccn34)cc2)c1 [Example 69, N-(4-{[2-(4,6-dimethyl-pyridin-2-ylamino)-ethyl]-methyl-amino}-phenyl)-2-oxo-2-(2-phenyl-indolizin-3-yl)-acetamide] | < 1 µg/mL |  |
| Cc1cc(C)nc(CCCCc2ccc(NC(=O)C(=O)c3c(-c4ccccc4)cc4ccccn34)cc2)c1 [Example 72, N-{4-[4-(4,6-Dimethyl-pyridin-2-yl)-butyl]-phenyl}-2-oxo-2-(2-phenyl-indolizin-3-yl)-acetamide] | < 1 µg/mL |  |
| CCc1cccc(N2CCN(c3ccc(NC(=O)C(=O)c4c(-c5ccccc5)cc5ccccn45)cc3)CC2)n1 [Example 73, N-{4-[4-(6-ethyl-pyridin-2-yl)-piperazin-1-yl]-phenyl}-2-oxo-2-(2-phenyl-indolizin-3-yl)-acetamide] | < 1 µg/mL |  |
| CCc1ccnc(N2CCN(c3ccc(NC(=O)C(=O)c4c(-c5ccccc5)cc5ccccn45)cc3)CC2)c1 [Example 75, N-{4-[4-(4-ethyl-pyridin-2-yl)-piperazin-1-yl]-phenyl}-2-oxo-2-(2-phenyl-indolizin-3-yl)-acetamide] | < 1 µg/mL |  |
| Cc1cc(C)nc(N2CCC(O)(c3ccc(NC(=O)C(=O)c4c(-c5ccccc5)cc5ccccn45)cc3)CC2)c1 [Example 79, N-[4-(4-hydroxy-4′,6′-dimethyl-3,4,5,6-tetrahydro-2H-[1,2′]-bipyridinyl-4-yl)-phenyl]-2-oxo-2-(2-phenyl-indolizin-3-yl)-acetamide] | > 10 µg/mL |  |
| Cc1cc(C)nc(N2CCN(c3ccc(NC(=O)C(=O)c4c(-c5ccccc5)cc5ccccn45)c(C)c3)CC2)c1 [Example 80, N-{4-[4-(4,6-Dimethyl-pyridin-2-yl)-piperazin-1-yl]-2-methyl-phenyl}-2-oxo-2-(2-phenyl-indolizin-3-yl)-acetamide] | < 1 µg/mL |  |
| COCc1cc(NC(=O)C(=O)c2c(-c3ccccc3)cc3ccccn23)ccc1N1CCN(c2cc(C)cc(C)n2)CC1 [Example 81, N-{4-[4-(4,6-Dimethyl-pyridin-2-yl)-piperazin-1-yl]-3-methoxymethyl-phenyl}-2-oxo-2-(2-phenyl-indolizin-3-yl)-acetamide] | < 1 µg/mL |  |
| Cc1cc(C)nc(N2CCN(c3ccc(NC(=O)C(=O)c4c(-c5ccccc5)cc5ccccn45)cc3C)CC2)c1 [Example 82, N-{4-[4-(4,6-Dimethyl-pyridin-2-yl)-piperazin-1-yl]-3-methyl-phenyl}-2-oxo-2-(2-phenyl-indolizin-3-yl)-acetamide] | < 1 µg/mL |  |
| O=C(Nc1ccc(-c2cocn2)cc1)C(=O)c1c(-c2ccc(-c3ccccc3)cc2)cc2ccccn12 [Example 85, 2-(2-Biphenyl-4-yl-indolizin-3-yl)-N-(4-oxazol-4-yl-phenyl)-2-oxo-acetamide] | > 10 µg/mL |  |
| O=C(Nc1ccc(N2CCN(c3cc(OCCO)ccn3)CC2)cc1)C(=O)c1c(-c2ccccc2)cc2ccccn12 [Example 89, N-(4-{4-[4-(2-Hydroxy-ethoxy)-pyridin-2-yl]-piperazin-1-yl}-phenyl)-2-oxo-2-(2-phenyl-indolizin-3-yl)-acetamide] | 1 to 10 µg/mL (≈ 1.78 to 17.8 µM) |  |
| O=C(Nc1ccc(NCCOc2ccccn2)cc1)C(=O)c1c(-c2ccccc2)cc2ccccn12 [Example 90, 2-Oxo-2-(2-phenyl-indolizin-3-yl)-N-{4-[2-(pyridin-2-yloxy)-ethylamino]-phenyl}-acetamide] | < 1 µg/mL |  |
| Cc1cc(C)nc(NCCNc2ccc(NC(=O)C(=O)c3c(-c4ccccc4)cc4ccccn34)cc2)c1 [Example 92, N-{4-[2-(4,6-dimethyl-pyridin-2-yl-amino)-ethylamino]-phenyl}-2-oxo-2-(2-phenyl-indolizin-3-yl)-acetamide] | < 1 µg/mL |  |

Second part, led by results:

| MIC (Aspergillus fumigatus) | Compound | further results |
| --- | --- | --- |
| > 10 µg/mL | Cc1nc(C(C)C)cn1C(C)(C)c1cccc(NC(=O)C(=O)c2c(-c3ccccc3)cc3ccccn23)c1 [Example 25] | MIC (Aspergillus flavus): 1 to 10 µg/mL (≈ 1.98 to 19.8 µM); MIC [1]: > 10 µg/mL; MIC (Aspergillus niger): > 10 µg/mL; MIC (Aspergillus terreus AT49): 1 to 10 µg/mL (≈ 1.98 to 19.8 µM); MIC (Aspergillus terreus): 1 to 10 µg/mL (≈ 1.98 to 19.8 µM) |
| < 1 µg/mL | Cc1cc(OCCOc2ccc(NC(=O)C(=O)c3c(-c4ccccc4)cc4ccccn34)cc2)cc(C)n1 [Example 71, N-{4-[2-(2,6-Dimethyl-pyridin-4-yloxy)-ethoxy]-phenyl}-2-oxo-2-(2-phenyl-indolizin-3-yl)-acetamide] |  |
| < 1 µg/mL | Cc1ccc(N2CCN(c3ccc(NC(=O)C(=O)c4c(-c5ccccc5)cc5ccccn45)cc3)CC2)nc1 [Example 74, N-{4-[4-(5-Methyl-pyridin-2-yl)-piperazin-1-yl]-phenyl}-2-oxo-2-(2-phenyl-indolizin-3-yl)-acetamide] |  |
| < 1 µg/mL | COCCOCCOc1cc(C)nc(N2CCN(c3ccc(NC(=O)C(=O)c4c(-c5ccccc5)cc5ccccn45)cc3)CC2)c1 [Example 76, N-[4-(4-{4-[2-(2-methoxy-ethoxy)-ethoxyl]-6-methyl-pyridin-2-yl}-piperazin-1-yl)-phenyl]-2-oxo-2-(2-phenyl-indolizin-3-yl)-acetamide] |  |
| < 1 µg/mL | Cc1cc(C)nc(N(C)CCNc2ccc(NC(=O)C(=O)c3c(-c4ccccc4)cc4ccccn34)cc2)c1 [Example 78, N-(4-{2-[(4,6-Dimethyl-pyridin-2-yl)-methyl-amino]-ethylamino}-phenyl)-2-oxo-2-(2-phenyl-indolizin-3-yl)-acetamide] |  |
| < 1 µg/mL | COCc1cc(N2CCN(c3cc(C)cc(C)n3)CC2)ccc1NC(=O)C(=O)c1c(-c2ccccc2)cc2ccccn12 [Example 83, N-{4-[4-(4,6-Dimethyl-pyridin-2-yl)-piperazin-1-yl]-2-methoxymethyl-phenyl}-2-oxo-2-(2-phenyl-indolizin-3-yl)-acetamide] |  |
| < 1 µg/mL | O=C(Nc1ccc(N2CCN(c3cccc(CCO)n3)CC2)cc1)C(=O)c1c(-c2ccccc2)cc2ccccn12 [Example 88, N-(4-{4-[6-(2-hydroxy-ethyl)-pyridin-2-yl]-piperazin-1-yl}-phenyl)-2-oxo-2-(2-phenyl-indolizin-3-yl)-acetamide] |  |
| < 1 µg/mL | Cc1cc(C)nc(CNc2ccc(NC(=O)C(=O)c3c(-c4ccccc4)cc4ccccn34)cc2)c1 [Example 91, N-{4-[(4,6-Dimethyl-pyridin-2-ylmethyl)-amino]-phenyl}-2-oxo-2-(2-phenyl-indolizin-3-yl)-acetamide] |  |
